Here are results for ten compounds from ChEMBL document CHEMBL1201862, “PubChem BioAssay data set” (2004).

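Exposure lasted 48 hours, with cells grown in 96-well plates and compounds tested at five concentrations. Here, GI50 denotes the concentration required for 50% inhibition of growth.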 Calls of active or inactive are those of the source. No stated cut-off is given here; in the data, active = GI50 up to about 1.1 µM and inactive = higher.

What all share (assay): NCI anticancer screen, dose series, 48 h
In assay [1] the test system is MOLT-4.
The test system of assay [2] is SN12C.
In assay [3] the test system is CAKI-1.
Assay [4] deals with A498.
Assay [5] has as its system RPMI-8226.
The subject of assay [6] is OVCAR-3.
For assay [7], the system named is Hs-578T.
The subject of assay [8] is NCI/ADR-RES.
Assay [9] concerns SR.
In assay [10] the test system is UACC-62.
The test system of assay [11] is MCF7.
Assay [12] relates to NCI-H226.
For assay [13], the system named is SK-OV-3.
Assay [14] deals with NCI-H522.
Assay [15] deals with EKVX.
In assay [16] the test system is M14.
In assay [17] the test system is UACC-257.
Assay [18] deals with MDA-MB-435.
For assay [19], the system named is PC-3.
In assay [20] the test system is NCI-H23.

With `Brc1ccc2c(-c3csc(-c4c[nH]c5ccc(Br)cc45)n3)c[nH]c2c1`, the GI50 in assay [1] is 2.84 µM (inactive); in assay [2], 5.92 µM (inactive); in assay [3] it was 3.01 µM (inactive); in assay [4], 3.01 µM (inactive); in assay [5], 3.44 µM (inactive); in assay [6], 6 µM (inactive). Also, the GI50 is 5.78 µM (inactive) in [7]; 4.83 µM (inactive) in [8]; 3.89 µM (inactive) in assay [9]; 3.18 µM (inactive) in assay [10]; 3.82 µM (inactive) in assay [11]; 3.42 µM (inactive) in assay [12]. Moreover, the GI50 in [13] was 11.2 µM (inactive); in [14], 2.11 µM (inactive); in assay [15], 1.27 µM (inactive); in assay [16], 3.12 µM (inactive); in [17], 7.94 µM (inactive); in [18], 4.46 µM (inactive). Moreover, the GI50 in assay [19] is 4.81 µM (inactive); in assay [20], 2.87 µM (inactive).

Consider `CC1(C)CC(=O)C2=C(C1)OC1(CC2c2ccc(Cl)cc2)CC(c2ccc(Cl)cc2)C2=C(CC(C)(C)CC2=O)O1` (stereo not given), for which the GI50 in [1] is 3.13 µM (inactive); in [2], 36.7 µM (inactive); in assay [3], 26.9 µM (inactive); in assay [4], 16 µM (inactive); in assay [5], 9.46 µM (inactive); in assay [6] it was 3.44 µM (inactive). Besides, the GI50 was 16.5 µM (inactive) in [7]; > 38.5 µM (inactive) in [8]; 4.83 µM (inactive) in assay [9]; 23.6 µM (inactive) in [10]; 12 µM (inactive) in assay [11]; 22.4 µM (inactive) in assay [12]. Besides, the GI50 in assay [13] was 12.1 µM (inactive); in assay [14] it was 11.3 µM (inactive); in [15] it was 16.1 µM (inactive); in [16] it was 23.1 µM (inactive); in assay [17], 17 µM (inactive); in assay [18] it was 8.53 µM (inactive). Also, the GI50 was 18.2 µM (inactive) in assay [19] and 16.3 µM (inactive) in [20].

With `CC(=O)Nc1ccc2c3c(cc(O)c2c1)N(C(=O)CCCCC(=O)N1CC(CCl)c2c1cc(O)c1cc(NC(C)=O)ccc21)CC3CCl` (stereo not given), the GI50 in assay [1] is < 0.01 µM (active); in assay [2], 0.154 µM (active); in assay [3], 0.745 µM (active); in assay [4], 0.127 µM (active); in assay [5], 0.169 µM (active); in assay [6], 0.209 µM (active). For the same compound, the GI50 in assay [7] is 0.423 µM (active); in [8], 21.3 µM (inactive); in assay [9] it was < 0.01 µM (active); in assay [10] it was 0.0154 µM (active); in [11], < 0.01 µM (active); in assay [12], 0.0333 µM (active). Moreover, the GI50 in [13] is 0.34 µM (active); in [14], 0.0575 µM (active); in assay [15] it was 2.38 µM (inactive); in assay [16], 0.083 µM (active); in assay [17], 0.181 µM (active); in assay [18] it was 0.186 µM (active). Moreover, the GI50 in [19] is 0.526 µM (active); in assay [20], < 0.0161 µM (active).

Regarding `Cc1ccc2c(c1C)C(=O)C1(C2)Cc2ccc3c(c2C1=O)CCC3` (stereo not given), the GI50 in [1], in assay [2], in [3], in [4], in assay [5] and in assay [6] was > 100 µM (inactive) in each case. The GI50 in [7], in assay [8], in [9], in assay [10], in [11] and in [12] was > 100 µM (inactive) in each case. The GI50 in assay [13] is > 100 µM (inactive); in assay [14], > 100 µM (inactive); in [15], > 100 µM (inactive); in assay [16], 2.03 µM (inactive); in [17], > 100 µM (inactive); in [18], > 100 µM (inactive). The GI50 in assay [19] and in assay [20] was > 100 µM (inactive) throughout.

With `CCCCCCc1cc2cc(C(=O)Nc3cccc(C(F)(F)F)c3)c(=N)oc2cc1O`, the GI50 in assay [1] was 0.586 µM (active); in [2], 1.33 µM (inactive); in assay [3] it was 2.32 µM (inactive); in [4], 2.92 µM (inactive); in [5], 0.524 µM (active); in assay [6] it was 2.07 µM (inactive). Also, the GI50 in assay [7] is 0.998 µM (active); in assay [8], 2.06 µM (inactive); in assay [9], 0.361 µM (active); in [10], 1.53 µM (inactive); in [11], 1.62 µM (inactive); in assay [12] it was 1.06 µM (active). In addition, the GI50 is 2.16 µM (inactive) in assay [13]; 0.351 µM (active) in assay [14]; 2.94 µM (inactive) in assay [15]; 2.29 µM (inactive) in assay [16]; 2.44 µM (inactive) in assay [17]; 2 µM (inactive) in assay [18]. Besides, the results for the GI50 in assay [19] and in assay [20] were 3.34 µM (inactive) and 0.185 µM (active), respectively.

In the case of `COc1cc(-c2ccccc2N)c2cccnc2c1OC`, the GI50 in assay [1] is 1.44 µM (inactive); in assay [2], 3.93 µM (inactive); in assay [3] it was 2.63 µM (inactive); in assay [4] it was 14.1 µM (inactive); in [5], 3.4 µM (inactive); in assay [6], 4.38 µM (inactive). Also, the GI50 in assay [7] was 3.05 µM (inactive); in assay [8] it was 10.4 µM (inactive); in assay [9], 1.67 µM (inactive); in assay [10], 11.7 µM (inactive); in assay [11], 3.84 µM (inactive); in assay [12], 11.6 µM (inactive). In addition, the GI50 in assay [13] was 9.57 µM (inactive); in assay [14] it was 3.59 µM (inactive); in assay [15], 5.06 µM (inactive); in assay [16] it was 6.28 µM (inactive); in assay [17], 10.1 µM (inactive); in assay [18], 8.17 µM (inactive). Moreover, the GI50 was 8.55 µM (inactive) in assay [19] and 4.94 µM (inactive) in assay [20].

Take `Cc1ccccc1OC(C)C(=O)NN1C(=O)CC(=O)NC1=S` (stereo not given): the GI50 in [1] was 94.8 µM (inactive); in assay [2] it was > 100 µM (inactive); in [3], > 100 µM (inactive); in assay [4], > 100 µM (inactive); in assay [5], > 100 µM (inactive); in [6], > 100 µM (inactive). The GI50 in assay [7] is > 100 µM (inactive); in assay [8] it was > 100 µM (inactive); in assay [9], 49.1 µM (inactive); in [10], 80.5 µM (inactive); in assay [11], 47.4 µM (inactive); in [12], 70.5 µM (inactive). Besides, the GI50 in [13], in assay [14], in [15], in [16], in assay [17] and in assay [18] was > 100 µM (inactive) throughout. Besides, the GI50 in [19] and in [20] was > 100 µM (inactive) each time.

With `COc1ccc2c3c([nH]c2c1)[C@H](C=C(C)C)N1C(=O)[C@@H]2CCCN2C(=O)[C@@H]1C3` [FUMITREMORGIN], the GI50 in assay [1], in assay [2], in [3], in assay [4], in assay [5] and in assay [6] was > 100 µM (inactive) in each case. The GI50 in assay [7] is 50.9 µM (inactive); in assay [8] it was > 100 µM (inactive); in assay [9], > 100 µM (inactive); in assay [10], 87.5 µM (inactive); in assay [11], > 100 µM (inactive); in assay [12], > 100 µM (inactive). Also, the GI50 in assay [13] is 29.6 µM (inactive); in [14] it was > 100 µM (inactive); in assay [15], > 100 µM (inactive); in assay [16], > 100 µM (inactive); in [17], > 100 µM (inactive); in assay [18] it was > 100 µM (inactive). For the same compound, the GI50 in assay [19] and in assay [20] was > 100 µM (inactive) throughout.

On to `CNC(=S)/C(C#N)=C(\N)N1CCN(C)CC1`, for which the GI50 in assay [1], in assay [2], in [3], in assay [4], in assay [5] and in assay [6] was > 100 µM (inactive) throughout. The GI50 in assay [7], in assay [8], in assay [9], in assay [10], in assay [11] and in [12] was > 100 µM (inactive) in each case. In addition, the GI50 in assay [13], in [14], in assay [15], in [16], in [17] and in assay [18] was > 100 µM (inactive) each time. Besides, the GI50 in assay [19] and in [20] was > 100 µM (inactive) each time.

In the case of `Cc1cc(N(CCOS(C)(=O)=O)CCOS(C)(=O)=O)ccc1/C=N/c1ccc(-c2csc(-c3ccccc3)n2)c(Cl)c1`, the GI50 in [1] was 2.43 µM (inactive); in assay [2] it was 8.81 µM (inactive); in assay [3], 0.179 µM (active); in assay [4], 1.6 µM (inactive); in assay [5], 11.2 µM (inactive); in assay [6] it was 8.65 µM (inactive). For the same compound, the GI50 in assay [7] is 18 µM (inactive); in assay [8], 13.3 µM (inactive); in assay [9], 1.54 µM (inactive); in assay [10], 2.95 µM (inactive); in [11], 4.27 µM (inactive); in assay [12], 9.12 µM (inactive). In addition, the GI50 in assay [13] is 3.37 µM (inactive); in assay [14] it was 1.63 µM (inactive); in assay [15], 4.47 µM (inactive); in assay [16], 8.67 µM (inactive); in [17] it was 20.4 µM (inactive); in assay [18] it was 9.79 µM (inactive). Moreover, the GI50 in [19] is 14.8 µM (inactive); in assay [20] it was 5.98 µM (inactive).
